Peptide text beside a SMILES is read from it.
Target: WT cyclophilin (Homo sapiens, UniProt P62937)
Experiment: FRET equilibrium binding to wild-type cyclophilin

Chain of WT cyclophilin (P62937 whole entry): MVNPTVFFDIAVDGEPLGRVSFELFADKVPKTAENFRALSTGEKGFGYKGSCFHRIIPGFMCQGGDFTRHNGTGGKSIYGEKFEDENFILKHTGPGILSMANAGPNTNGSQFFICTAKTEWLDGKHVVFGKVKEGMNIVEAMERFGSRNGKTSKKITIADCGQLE

Kd: 164 ± 32 µM
Structure (SMILES): C[C@H](NS(=O)(=O)c1cccc2c(N(C)C)cccc12)C(=O)N[C@@H](C)C(=O)N1CCC[C@H]1C(=O)N[C@@H](Cc1ccccc1)C(=O)O [WT peptide] (HELM PEPTIDE1{[CN(C)c1cccc2c(S(=O)(=O)[*:2])cccc12].A.A.P.F}$$$$V2.0)

Source: paper PMC4760428 (Angewandte Chemie (International Ed. in English), 2016)
